Results reported in PubChem BioAssay (NCI).
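All cell lines were grown in 96-well plates and treated with compound for 48 hours. GI50 marks 50% less growth. The concentration for full growth arrest is given as TGI.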

Assays:
Test in all cases: growth of human tumour cells (NCI), 48 h
786-0 renal = system: 786-0 renal
A498 renal = system: A498 renal
A549 NSCLC = system: A549 NSCLC
ACHN renal = system: ACHN renal
BT-549 breast = system: BT-549 breast
CAKI-1 renal = system: CAKI-1 renal
CCRF-CEM leukemia = system: CCRF-CEM leukemia
COLO 205 colon = system: COLO 205 colon
DU-145 prostate = system: DU-145 prostate
EKVX NSCLC = system: EKVX NSCLC
HCT-116 colon = system: HCT-116 colon
HCT-15 colon = system: HCT-15 colon
HL-60(TB) leukemia = system: HL-60(TB) leukemia
HOP-62 NSCLC = system: HOP-62 NSCLC
HOP-92 NSCLC = system: HOP-92 NSCLC
HS 578T breast = system: HS 578T breast
HT29 colon = system: HT29 colon
IGROV1 ovarian = system: IGROV1 ovarian
K-562 leukemia = system: K-562 leukemia
KM12 colon = system: KM12 colon
LOX IMVI melanoma = system: LOX IMVI melanoma
M14 melanoma = system: M14 melanoma
MALME-3M melanoma = system: MALME-3M melanoma
MCF7 breast = system: MCF7 breast
MDA-MB-231 breast = system: MDA-MB-231 breast
MDA-MB-435 = system: MDA-MB-435
MOLT-4 leukemia = system: MOLT-4 leukemia
NCI-H226 lung = system: NCI-H226 lung
NCI-H23 lung = system: NCI-H23 lung
NCI-H460 lung = system: NCI-H460 lung
NCI-H522 lung = system: NCI-H522 lung
NCI/ADR-RES ovarian = system: NCI/ADR-RES ovarian
OVCAR-3 ovarian = system: OVCAR-3 ovarian
OVCAR-4 ovarian = system: OVCAR-4 ovarian
OVCAR-5 ovarian = system: OVCAR-5 ovarian
OVCAR-8 ovarian = system: OVCAR-8 ovarian
PC-3 prostate = system: PC-3 prostate
RPMI-8226 leukemia = system: RPMI-8226 leukemia
RXF 393 renal = system: RXF 393 renal
SF-268 CNS = system: SF-268 CNS
SF-295 CNS = system: SF-295 CNS
SF-539 CNS = system: SF-539 CNS
SK-MEL-2 melanoma = system: SK-MEL-2 melanoma
SK-MEL-28 melanoma = system: SK-MEL-28 melanoma
SK-MEL-5 melanoma = system: SK-MEL-5 melanoma
SK-OV-3 ovarian = system: SK-OV-3 ovarian
SN12C renal = system: SN12C renal
SNB-19 CNS = system: SNB-19 CNS
SNB-75 CNS = system: SNB-75 CNS
SR leukemia = system: SR leukemia
SW-620 colon = system: SW-620 colon
T-47D breast = system: T-47D breast
TK-10 renal = system: TK-10 renal
U251 CNS = system: U251 CNS
UACC-257 melanoma = system: UACC-257 melanoma
UACC-62 melanoma = system: UACC-62 melanoma
UO-31 renal = system: UO-31 renal

Q: How did the GI50 (786-0 renal) turn out when COc1ccc2[nH]cc(/C=C3\C(=O)Nc4ccccc43)c2c1 was run?
A: 11.9 µM

Q: What about the TGI (786-0 renal) of the same compound?
A: 30.2 µM

Q: And the GI50 (A498 renal)?
A: 3.15 µM

Q: And the TGI (A498 renal)?
A: 15.1 µM

Q: What about the GI50 (A549 NSCLC) of the same compound?
A: 4.68 µM

Q: And the TGI (A549 NSCLC)?
A: 24.4 µM

Q: What about the GI50 (ACHN renal) of the same compound?
A: 5.85 µM

Q: And the TGI (ACHN renal)?
A: 37.5 µM

Q: What about the GI50 (BT-549 breast) of the same compound?
A: 2.9 µM

Q: What about the TGI (BT-549 breast) of the same compound?
A: 21.4 µM

Q: And the GI50 (CAKI-1 renal)?
A: 4.12 µM

Q: What about the TGI (CAKI-1 renal) of the same compound?
A: 26.4 µM

Q: What about the GI50 (CCRF-CEM leukemia) of the same compound?
A: 3.94 µM

Q: What about the TGI (CCRF-CEM leukemia) of the same compound?
A: 18.8 µM

Q: And the GI50 (COLO 205 colon)?
A: 3.86 µM

Q: And the TGI (COLO 205 colon)?
A: 23.2 µM

Q: What about the GI50 (DU-145 prostate) of the same compound?
A: 5.2 µM

Q: And the TGI (DU-145 prostate)?
A: 22.3 µM

Q: And the GI50 (EKVX NSCLC)?
A: 2.73 µM

Q: And the TGI (EKVX NSCLC)?
A: 15.1 µM

Q: And the GI50 (HCT-116 colon)?
A: 3.41 µM

Q: What about the TGI (HCT-116 colon) of the same compound?
A: 14.5 µM

Q: What about the GI50 (HCT-15 colon) of the same compound?
A: 3.86 µM

Q: What about the TGI (HCT-15 colon) of the same compound?
A: 17.5 µM

Q: And the GI50 (HL-60(TB) leukemia)?
A: 1.78 µM

Q: What about the TGI (HL-60(TB) leukemia) of the same compound?
A: 4.26 µM

Q: What about the GI50 (HOP-62 NSCLC) of the same compound?
A: 5.18 µM

Q: What about the TGI (HOP-62 NSCLC) of the same compound?
A: 19.8 µM

Q: And the GI50 (HOP-92 NSCLC)?
A: 3.84 µM

Q: And the TGI (HOP-92 NSCLC)?
A: 13.6 µM

Q: And the GI50 (HS 578T breast)?
A: 3.79 µM

Q: And the TGI (HS 578T breast)?
A: 19.9 µM

Q: And the GI50 (HT29 colon)?
A: 3.6 µM

Q: What about the TGI (HT29 colon) of the same compound?
A: 14.3 µM

Q: And the GI50 (IGROV1 ovarian)?
A: 2.82 µM

Q: And the TGI (IGROV1 ovarian)?
A: 16.8 µM

Q: And the GI50 (K-562 leukemia)?
A: 2.28 µM

Q: And the TGI (K-562 leukemia)?
A: 9.83 µM

Q: And the GI50 (KM12 colon)?
A: 0.246 µM

Q: And the TGI (KM12 colon)?
A: 13 µM

Q: And the GI50 (LOX IMVI melanoma)?
A: 4.62 µM

Q: What about the TGI (LOX IMVI melanoma) of the same compound?
A: 15.9 µM

Q: And the GI50 (M14 melanoma)?
A: 2.99 µM

Q: What about the TGI (M14 melanoma) of the same compound?
A: 14.2 µM

Q: And the GI50 (MALME-3M melanoma)?
A: 11.2 µM

Q: And the TGI (MALME-3M melanoma)?
A: 49.1 µM

Q: And the GI50 (MCF7 breast)?
A: 2.45 µM

Q: What about the TGI (MCF7 breast) of the same compound?
A: 10.5 µM

Q: What about the GI50 (MDA-MB-231 breast) of the same compound?
A: 3.95 µM

Q: And the TGI (MDA-MB-231 breast)?
A: 21.9 µM

Q: And the GI50 (MDA-MB-435)?
A: 2.39 µM

Q: What about the TGI (MDA-MB-435) of the same compound?
A: 5.97 µM

Q: What about the GI50 (MOLT-4 leukemia) of the same compound?
A: 2.33 µM

Q: And the TGI (MOLT-4 leukemia)?
A: 7.4 µM

Q: And the GI50 (NCI-H226 lung)?
A: 7.65 µM

Q: What about the TGI (NCI-H226 lung) of the same compound?
A: 35.9 µM

Q: What about the GI50 (NCI-H23 lung) of the same compound?
A: 10.5 µM

Q: What about the TGI (NCI-H23 lung) of the same compound?
A: 49.6 µM

Q: What about the GI50 (NCI-H460 lung) of the same compound?
A: 4.09 µM

Q: What about the TGI (NCI-H460 lung) of the same compound?
A: 18.7 µM

Q: What about the GI50 (NCI-H522 lung) of the same compound?
A: 4.59 µM

Q: And the TGI (NCI-H522 lung)?
A: 19.6 µM

Q: And the GI50 (NCI/ADR-RES ovarian)?
A: 4.97 µM

Q: And the TGI (NCI/ADR-RES ovarian)?
A: 37 µM

Q: What about the GI50 (OVCAR-3 ovarian) of the same compound?
A: 9.62 µM

Q: What about the TGI (OVCAR-3 ovarian) of the same compound?
A: 35.9 µM

Q: What about the GI50 (OVCAR-4 ovarian) of the same compound?
A: 6.21 µM

Q: What about the TGI (OVCAR-4 ovarian) of the same compound?
A: 60.3 µM

Q: What about the GI50 (OVCAR-5 ovarian) of the same compound?
A: 11.6 µM

Q: What about the TGI (OVCAR-5 ovarian) of the same compound?
A: 42 µM

Q: What about the GI50 (OVCAR-8 ovarian) of the same compound?
A: 7.02 µM

Q: And the TGI (OVCAR-8 ovarian)?
A: 21.8 µM

Q: What about the GI50 (PC-3 prostate) of the same compound?
A: 5.89 µM

Q: What about the TGI (PC-3 prostate) of the same compound?
A: 25.8 µM

Q: What about the GI50 (RPMI-8226 leukemia) of the same compound?
A: 2.35 µM

Q: And the TGI (RPMI-8226 leukemia)?
A: 6.84 µM

Q: What about the GI50 (RXF 393 renal) of the same compound?
A: 2.95 µM

Q: What about the TGI (RXF 393 renal) of the same compound?
A: 13.3 µM

Q: And the GI50 (SF-268 CNS)?
A: 5.92 µM

Q: And the TGI (SF-268 CNS)?
A: 29.9 µM

Q: And the GI50 (SF-295 CNS)?
A: 10.8 µM

Q: And the TGI (SF-295 CNS)?
A: 30 µM

Q: What about the GI50 (SF-539 CNS) of the same compound?
A: 5.43 µM

Q: And the TGI (SF-539 CNS)?
A: 18.1 µM

Q: What about the GI50 (SK-MEL-2 melanoma) of the same compound?
A: 10.2 µM

Q: And the TGI (SK-MEL-2 melanoma)?
A: 29.2 µM

Q: And the GI50 (SK-MEL-28 melanoma)?
A: 10.5 µM

Q: And the TGI (SK-MEL-28 melanoma)?
A: 42 µM

Q: What about the GI50 (SK-MEL-5 melanoma) of the same compound?
A: 3.43 µM

Q: And the TGI (SK-MEL-5 melanoma)?
A: 15.2 µM

Q: And the GI50 (SK-OV-3 ovarian)?
A: 4.75 µM

Q: And the TGI (SK-OV-3 ovarian)?
A: 21.5 µM

Q: What about the GI50 (SN12C renal) of the same compound?
A: 7.37 µM

Q: And the TGI (SN12C renal)?
A: 39.9 µM

Q: And the GI50 (SNB-19 CNS)?
A: 8.7 µM

Q: What about the TGI (SNB-19 CNS) of the same compound?
A: > 100 µM

Q: And the GI50 (SNB-75 CNS)?
A: 3.14 µM

Q: And the TGI (SNB-75 CNS)?
A: 15.1 µM

Q: What about the GI50 (SR leukemia) of the same compound?
A: 1.96 µM

Q: What about the TGI (SR leukemia) of the same compound?
A: 5.2 µM

Q: What about the GI50 (SW-620 colon) of the same compound?
A: 2.92 µM

Q: What about the TGI (SW-620 colon) of the same compound?
A: 12.8 µM

Q: What about the GI50 (T-47D breast) of the same compound?
A: 4.91 µM

Q: What about the TGI (T-47D breast) of the same compound?
A: 30.3 µM

Q: What about the GI50 (TK-10 renal) of the same compound?
A: 7.98 µM

Q: What about the TGI (TK-10 renal) of the same compound?
A: 31.3 µM

Q: And the GI50 (U251 CNS)?
A: 6.12 µM

Q: And the TGI (U251 CNS)?
A: 21.2 µM

Q: And the GI50 (UACC-257 melanoma)?
A: 14.3 µM

Q: And the TGI (UACC-257 melanoma)?
A: 73.1 µM

Q: What about the GI50 (UACC-62 melanoma) of the same compound?
A: 4.09 µM

Q: And the TGI (UACC-62 melanoma)?
A: 20.6 µM

Q: What about the GI50 (UO-31 renal) of the same compound?
A: 6.94 µM

Q: And the TGI (UO-31 renal)?
A: 32.4 µM
